Results as given in the NIST ThermoML archive (doi:10.1021/acs.jced.7b00106).
Numbers after ± are expanded uncertainties.

Conditions: Hot wire method

FC(F)(F)/C=C/Cl [(E)-1-chloro-3,3,3-trifluoroprop-1-ene]
Conditions	thermal conductivity [W/m/K]
334.63 K, 179 kPa, Gas	0.01343 ± 0.00048
334.73 K, 328 kPa, Gas	0.01333 ± 0.00047
334.82 K, 112 kPa, Gas	0.01357 ± 0.00048
334.91 K, 97 kPa, Gas	0.01369 ± 0.00048
334.92 K, 253 kPa, Gas	0.0134 ± 0.00047
335.16 K, 178 kPa, Gas	0.01354 ± 0.00048
335.37 K, 112 kPa, Gas	0.01364 ± 0.00048
335.44 K, 97 kPa, Gas	0.01368 ± 0.00048
335.71 K, 176 kPa, Gas	0.01352 ± 0.00048
336 K, 98 kPa, Gas	0.01372 ± 0.00048
336.29 K, 176 kPa, Gas	0.01354 ± 0.00048
341.04 K, 7818 kPa, Liquid	0.07607 ± 0.008
341.05 K, 502 kPa, Liquid	0.07132 ± 0.0076
341.06 K, 4000 kPa, Liquid	0.07359 ± 0.0035
341.11 K, 4008 kPa, Liquid	0.07339 ± 0.0022
341.11 K, 7812 kPa, Liquid	0.07571 ± 0.0023
341.12 K, 503 kPa, Liquid	0.07103 ± 0.0042
341.12 K, 34293 kPa, Liquid	0.08893 ± 0.012
341.19 K, 34283 kPa, Liquid	0.08864 ± 0.0099
341.28 K, 19052 kPa, Liquid	0.08179 ± 0.0031
341.29 K, 26074 kPa, Liquid	0.08503 ± 0.0057
341.35 K, 19044 kPa, Liquid	0.08181 ± 0.0025
341.36 K, 12813 kPa, Liquid	0.07865 ± 0.0026
341.37 K, 26069 kPa, Liquid	0.08479 ± 0.0053
341.4 K, 7815 kPa, Liquid	0.07567 ± 0.0049
341.42 K, 3996 kPa, Liquid	0.0734 ± 0.006
341.44 K, 510 kPa, Liquid	0.07095 ± 0.005
341.44 K, 12800 kPa, Liquid	0.07849 ± 0.0032
341.47 K, 114 kPa, Gas	0.01391 ± 0.0005
341.48 K, 7806 kPa, Liquid	0.07567 ± 0.0039
341.5 K, 113 kPa, Gas	0.01391 ± 0.00049
341.5 K, 182 kPa, Gas	0.01442 ± 0.00051
341.5 K, 4008 kPa, Liquid	0.07332 ± 0.0028
341.53 K, 498 kPa, Liquid	0.07081 ± 0.0051
341.53 K, 53967 kPa, Liquid	0.09634 ± 0.0074
341.54 K, 65483 kPa, Liquid	0.1004 ± 0.0035
341.56 K, 117 kPa, Gas	0.01424 ± 0.00051
341.57 K, 34287 kPa, Liquid	0.08857 ± 0.0051
341.61 K, 65470 kPa, Liquid	0.1001 ± 0.0046
341.62 K, 53976 kPa, Liquid	0.09608 ± 0.0039
341.73 K, 464 kPa, Gas	0.01417 ± 0.001
341.74 K, 113 kPa, Gas	0.01377 ± 0.00049
341.74 K, 256 kPa, Gas	0.01435 ± 0.00052
341.76 K, 26067 kPa, Liquid	0.08459 ± 0.0026
341.77 K, 19040 kPa, Liquid	0.08164 ± 0.0031
341.78 K, 181 kPa, Gas	0.01434 ± 0.00051
341.79 K, 114 kPa, Gas	0.0139 ± 0.00052
341.8 K, 177 kPa, Gas	0.01425 ± 0.0005
341.82 K, 7816 kPa, Liquid	0.0756 ± 0.0028
341.84 K, 117 kPa, Gas	0.01379 ± 0.00049
341.84 K, 465 kPa, Gas	0.01387 ± 0.0011
341.84 K, 4002 kPa, Liquid	0.07296 ± 0.0032
341.87 K, 26056 kPa, Liquid	0.08482 ± 0.0026
341.88 K, 116 kPa, Gas	0.01443 ± 0.00056
341.88 K, 490 kPa, Liquid	0.07091 ± 0.0024
341.88 K, 12799 kPa, Liquid	0.07857 ± 0.0027
341.88 K, 19048 kPa, Liquid	0.08151 ± 0.0031
341.91 K, 380 kPa, Gas	0.01419 ± 0.0005
341.92 K, 7805 kPa, Liquid	0.07534 ± 0.0029
341.96 K, 4010 kPa, Liquid	0.07316 ± 0.0037
341.98 K, 253 kPa, Gas	0.01421 ± 0.00051
341.99 K, 264 kPa, Gas	0.01423 ± 0.0005
341.99 K, 497 kPa, Liquid	0.07068 ± 0.0024
342 K, 113 kPa, Gas	0.01367 ± 0.00048
342.01 K, 464 kPa, Gas	0.0141 ± 0.001
342.01 K, 65484 kPa, Liquid	0.1003 ± 0.0031
342.02 K, 53960 kPa, Liquid	0.09643 ± 0.0035
342.05 K, 176 kPa, Gas	0.01407 ± 0.0005
342.09 K, 117 kPa, Gas	0.01369 ± 0.00048
342.1 K, 180 kPa, Gas	0.01435 ± 0.00051
342.12 K, 465 kPa, Gas	0.01384 ± 0.00087
342.12 K, 34281 kPa, Liquid	0.08848 ± 0.003
